Measurements: the supplement of paper PMC10331698
± gives the standard deviation of the averaged measurements.

Legend:
Test in all cases: level (log10 ratio to DMSO vehicle control); higher = higher biomarker level / cell amount than vehicle control
Conditions in all cases: in DMSO
[1] = compound: O=S(=O)(O)C(F)(F)C(F)(F)C(F)(F)C(F)(F)C(F)(F)C(F)(F)C(F)(F)C(F)(F)F [Perfluorooctanesulfonic acid]
Description: (§1)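 BioMAP Diversity Plus panel of 12 human primary cell co-culture systems (3C, 4H, LPS, SAg, BT, BF4T, BE3C, CASM3C, HDF3CGF, KF3CT, MyoF, Mphg). Compounds were added 1 h before stimulation and left for 24 h (MyoF 48 h; BT 72 h for soluble read-outs or 6 d for IgG). Biomarkers were read by ELISA, cytotoxicity by SRB, PBMC viability and proliferation by Alamar Blue. Each well value was divided by the mean of 8 DMSO control wells on the same plate and log10 transformed; duplicate blinded samples were tested at 4 concentrations.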

[2] = compound: O=C(O)CCC(F)(F)C(F)(F)C(F)(F)C(F)(F)C(F)(F)F [2H,2H,3H,3H-Perfluorooctanoic acid]
Description: as §1

[3] = compound: CNS(=O)(=O)C(F)(F)C(F)(F)C(F)(F)C(F)(F)C(F)(F)C(F)(F)C(F)(F)C(F)(F)F [N-Methylperfluorooctanesulfonamide]
Description: as §1

[4] = compound: CC(C)(C)C(=O)CC(=O)C(F)(F)C(F)(F)C(F)(F)F [(Heptafluorobutanoyl)pivaloylmethane]
Description: as §1

[5] = compound: O=C(O)C(F)(F)C(F)(F)C(F)(F)C(F)(F)C(F)(F)C(F)(F)C(F)(F)C(F)(F)C(F)(F)C(F)(F)C(F)(F)C(F)(F)C(F)(F)F [Perfluorotetradecanoic acid]
Description: as §1

[6] = compound: C=C(C)C(=O)OCC(F)(F)C(F)(F)C(F)(F)C(F)(F)C(F)(F)C(F)(F)C(F)(F)F
Description: as §1

[7] = compound: O=C(O)C(F)(F)C(F)(F)C(F)(F)C(=O)O [Hexafluoroglutaric acid]
Description: as §1

Row | Test System | level (log10) ([1]; 6700 nM) | level (log10) ([1]; 20000 nM) | level (log10) ([1]; 60000 nM) | level (log10) ([2]; 6700 nM) | level (log10) ([2]; 20000 nM) | level (log10) ([2]; 60000 nM) | level (log10) ([3]; 6700 nM) | level (log10) ([3]; 20000 nM) | level (log10) ([3]; 60000 nM) | level (log10) ([4]; 6700 nM) | level (log10) ([4]; 20000 nM) | level (log10) ([4]; 60000 nM) | level (log10) ([5]; 6700 nM) | level (log10) ([5]; 20000 nM) | level (log10) ([6]; 6700 nM) | level (log10) ([6]; 20000 nM) | level (log10) ([7]; 6700 nM) | level (log10) ([7]; 20000 nM) | level (log10) ([7]; 60000 nM)
1 | HDF3CGF:TIMP-2 | -0.028 ± 0.0085 | -0.0695 ± 0.043 | -0.149 ± 0.018 | -0.0325 ± 0.021 | -0.04 ± 0.023 | 0.005 ± 0.047 | -0.094 ± 0.0057 | -0.136 ± 0.046 | -0.049 ± 0.044 | -0.0005 ± 0.019 | -0.006 ± 0.013 | -0.019 ± 0.016 | 0.091 ± 0.0085 | 0.036 ± 0.05 | 0.0535 ± 0.0092 | 0.0035 ± 0.056 | -0.041 ± 0.0014 | 0.01 ± 0.0028 | -0.0345 ± 0.0021
2 | CASM3C:CXCL9/MIG | -0.0085 ± 0.00071 | -0.003 ± 0.0014 | 0.0705 ± 0.032 | -0.0185 ± 0.00071 | -0.0285 ± 0.0092 | 0.0045 ± 0.042 | -0.0675 ± 0.026 | -0.086 ± 0.0085 | -0.05 ± 0.045 | -0.004 ± 0.0014 | -0.0085 ± 0.00071 | 0.006 ± 0.011 | -0.0375 ± 0.042 | 0.0295 ± 0.057 | 0.0005 ± 0.011 | 0.014 ± 0.014 | -0.0195 ± 0.019 | -0.02 ± 0.0085 | 0.022 ± 0.033
3 | CASM3C:PAI-I | -0.001 ± 0.0071 | 0 ± 0.0014 | 0.0095 ± 0.0021 | -0.0015 ± 0.013 | -0.0045 ± 0.019 | -0.012 ± 0.0099 | 0.011 ± 0.0042 | 0.0075 ± 0.012 | 0.0085 ± 0.012 | -0.004 ± 0.0028 | -0.0035 ± 0.0064 | 0.003 ± 0.0099 | 0.007 ± 0.0028 | 0.013 ± 0.0014 | -0.005 ± 0.0014 | -0.005 ± 0.0028 | -0.0015 ± 0.015 | -0.0005 ± 0.0064 | 0.0075 ± 0.0064
4 | CASM3C:Proliferation | 0.006 ± 0.042 | 0.0055 ± 0.022 | 0.057 ± 0.02 | -0.014 ± 0.045 | 0.002 ± 0.0014 | 0.011 ± 0.04 | 0.015 ± 0.031 | -0.006 ± 0.035 | -0.0605 ± 0.094 | -0.032 ± 0.03 | 0.0195 ± 0.0092 | -0.017 ± 0.037 | 0.0075 ± 0.028 | -0.018 ± 0.0057 | 0.0065 ± 0.033 | -0.022 ± 0.018 | -0.015 ± 0.083 | -0.029 ± 0.0071 | 0.004 ± 0.0071
5 | MyoF:PAI-I | 0.003 ± 0.017 | -0.0105 ± 0.0064 | -0.0055 ± 0.0092 | -0.009 ± 0.0028 | -0.0155 ± 0.005 | -0.0025 ± 0.005 | 0.0005 ± 0.022 | -0.0145 ± 0.012 | 0.0255 ± 0.0092 | 0.009 ± 0.016 | 0.009 ± 0.024 | 0.0195 ± 0.018 | 0.0115 ± 0.0064 | 0.006 | 0.0005 ± 0.011 | 0.005 ± 0.0042 | -0.0025 ± 0.021 | -0.0035 ± 0.015 | 0.003
6 | KF3CT:CD54/ICAM-1 | -0.0085 ± 0.0035 | 0.003 ± 0.02 | 0.0115 ± 0.011 | -0.016 ± 0.0085 | -0.0205 ± 0.018 | -0.0285 ± 0.023 | 0.031 ± 0.03 | -0.035 ± 0.014 | 0.018 ± 0.0028 | -0.0095 ± 0.011 | -0.0265 ± 0.018 | -0.021 ± 0.0042 | -0.003 ± 0.027 | -0.0375 ± 0.015 | 0.0045 ± 0.019 | -0.018 ± 0.031 | -0.0045 ± 0.00071 | -0.014 ± 0.0057 | -0.0015 ± 0.044
7 | lMphg:CXCL8/IL-8 | -0.0385 ± 0.018 | -0.003 ± 0.025 | 0.0585 ± 0.1 | -0.017 ± 0.023 | 0.066 ± 0.04 | 0.115 ± 0.018 | -0.0025 ± 0.0078 | 0.112 ± 0.022 | 0.118 ± 0.044 | 0.002 ± 0.02 | 0.006 ± 0.034 | 0.014 ± 0.064 | 0.0035 ± 0.032 | 0.0215 ± 0.049 | -0.042 ± 0.021 | -0.0315 ± 0.047 | 0.014 ± 0.0042 | 0.044 ± 0.072 | -0.0185 ± 0.0021
8 | HDF3CGF:Collagen I | 0.0175 ± 0.033 | 0.0045 ± 0.026 | 0.0065 ± 0.042 | 0.0065 ± 0.079 | -0.004 ± 0.078 | 0.0195 ± 0.14 | -0.0245 ± 0.012 | -0.041 ± 0.038 | 0.0085 ± 0.066 | -0.0025 ± 0.029 | -0.044 ± 0.04 | 0.0405 ± 0.044 | -0.0105 ± 0.076 | 0.016 ± 0.078 | -0.0035 ± 0.0078 | 0.0375 ± 0.005 | -0.03 ± 0.014 | -0.0385 ± 0.0078 | 0.0105 ± 0.071
9 | BE3C:MMP-1 | 0.149 ± 0.067 | 0.155 ± 0.012 | -0.0685 ± 0.26 | 0.019 ± 0.013 | 0.0225 ± 0.028 | 0.072 ± 0.048 | 0.0895 ± 0.03 | 0.0995 ± 0.025 | 0.001 ± 0.054 | -0.0025 ± 0.0035 | -0.019 ± 0.013 | 0.0095 ± 0.033 | 0.015 ± 0.025 | 0.0505 ± 0.059 | 0.02 ± 0.021 | 0.0655 ± 0.064 | -0.011 ± 0.0099 | -0.023 ± 0.016 | 0.007 ± 0.058
10 | HDF3CGF:CD106/VCAM-1 | -0.043 ± 0.03 | -0.089 ± 0.0057 | -0.21 ± 0.083 | 0.046 ± 0.082 | 0.044 ± 0.088 | 0.0435 ± 0.071 | -0.164 ± 0.017 | -0.176 ± 0.029 | -0.154 ± 0.0021 | 0.0085 ± 0.023 | 0.032 ± 0.0071 | -0.0925 ± 0.054 | -0.021 ± 0.0099 | -0.122 ± 0.012 | -0.01 ± 0.037 | -0.017 ± 0.11 | -0.045 ± 0.0071 | -0.0195 ± 0.071 | -0.05 ± 0.12
11 | HDF3CGF:EGFR | -0.0205 ± 0.0064 | -0.0495 ± 0.043 | -0.04 ± 0.018 | -0.055 ± 0.025 | -0.0435 ± 0.037 | -0.0205 ± 0.03 | 0.016 ± 0.0057 | -0.014 ± 0.023 | 0.0055 ± 0.0064 | 0.027 ± 0.016 | -0.102 ± 0.031 | 0.009 ± 0.055 | -0.0725 ± 0.036 | 0.029 ± 0.081 | 0.0245 ± 0.005 | -0.007 ± 0.048 | -0.021 ± 0.061 | -0.0285 ± 0.056 | -0.021 ± 0.072
12 | HDF3CGF:CXCL9/MIG | -0.011 ± 0.013 | -0.0085 ± 0.029 | -0.0595 ± 0.0064 | -0.01 ± 0.047 | -0.019 ± 0.047 | -0.036 ± 0.044 | -0.0065 ± 0.03 | 0.0105 ± 0.011 | -0.0205 ± 0.011 | 0.0025 ± 0.012 | 0 ± 0.02 | -0.025 ± 0.033 | 0.0075 ± 0.025 | -0.001 ± 0.0042 | 0.02 ± 0.024 | 0.0165 ± 0.015 | -0.013 ± 0.014 | -0.025 ± 0.011 | -0.005 ± 0.013
